In patent publication US11952362B2, “Compositions and methods for treating epigenetic disease” (The Regents of the University of California, priority 2018, dated 2024):
Counter-ions that a name gives are not always drawn. One block for each compound: values may come before it.

How the values were obtained:
TNBS colitis = TNBS colitis in mice; format: in vivo; settings: i.c. administration, 50 mg/kg daily for 5 days, day 4, vs vehicle-treated mice
Procedure: Male C57BL/6J mice 8-10 weeks old were purchased from The Jackson Laboratory (Sacramento, CA, USA). Mice were housed 4 per cage, maintained on a 12:12 hour light-dark cycle and given access to food and water ad libitum. Following an acclimatization period of 3 to 5 days, trinitrobenzene sulfonic acid (TNBS, Millipore Sigma, St. Louis, MO, USA) colitis was induced by intracolonic (i.c.) injection of 0.05 ml TNBS solution (5 mg in 40% ethanol) via a polyethylene cannula (BD Intramedic PE-20 tubing, Thermo Fisher Scientific, Santa Clara, CA, USA) inserted 3.5 cm from the anal verge under isoflurane anesthesia (4% in O2 induction, 2.5-3% maintenance). Control mice received an injection of 40% ethanol (0.05 ml, i.c.). To test the effectiveness of the HDAC analogs, mice received a daily injection (0.1 ml, i.c.) of a selective HDAC class II inhibitor analog (50 mg/kg MJK001-013) or vehicle (5% dimethyl sulfoxide, Millipore Sigma) beginning one day prior to TNBS colitis induction (day −1) for a period of 5 days. Separate groups of mice received HDAC inhibitors or vehicle administered by daily oral gavage (50 mg/kg, 0.25 ml, p.o.). All analogs tested were first dissolved in dimethyl sulfoxide (DMSO) with rapid vortexing and subsequent dilution to 5% in sterile phosphate buffered saline (PBS; Gibco, Thermo Fisher Scientific). Vehicle contained 5% DMSO in sterile PBS. Prior to use, all solids were stored in amber (light-blocking) storage vials at 4° C. On the first day of administration, stock solutions were prepared, aliquoted and stored at −20° C. for daily use. Upon thawing, each aliquot was vortexed prior to intracolonic injection (via a polyethylene cannula) or oral gavage (20 ga×38 mm, Instech, Thermo Fisher Scientific). Following all in vivo experiments, animals were euthanized on day 4 by CO2 inhalation and cervical dislocation and the distal colons removed for further study.
Disease severity was assessed by weight loss and measurement of colon length and determination of clinical and histological damage scores on day 4 of the protocol. Briefly, clinical scores were calculated on a scale of 0-3 for degree of weight loss, bleeding, stool consistency and presence of rectal prolapse. Sections of colon (5 μm) fixed in 10% formalin, paraffin-embedded and stained with hematoxylin and eosin (H&E) were used for histological scoring using an AxioImager. Z1 microscope equipped with AxioVision software version 4.6 (Zeiss, Jena, Germany). Scoring was performed by two independent investigators blinded to the treatment conditions and resulting scores averaged. Scores were assigned based on the degree of crypt damage (0-4), polymorphonuclear neutrophil (PMN) infiltrate (0-3), erosion (0-3), and edema (0-3).
Statistical analyses were performed using GraphPad Prism (Version 5.0a; GraphPad Software, La Jolla, CA, USA). Differences were determined by unpaired t-test, 1-way analysis of variance, or a 2-way analysis of variance with Tukey's post-test. A p value <0.05 was considered to be statistically significant. Data presented are means±SEM for n animals.
Novel chemical HDAC inhibitors were developed aiming to target specific isoforms of the HDAC Class IIA members. Overall, as shown above, compounds have been synthesized, named MJK-001, -002, -003, -004, -005, -006, -007, -008, -009, -010, -011, -012 & -013. The effect of selective HDAC class IIA isoform inhibition during development of colitis in mice in vivo during TNBS administration was assessed. This mouse model is known to recapitulate many features of human Crohn's Disease. Mice received either an intracolonic (i.c.) injection or oral delivery (p.o.) of the MJK compounds once daily for a period of 5 days and health status, weight loss, and disease activity were monitored. Mice (male C57BL/6J, 8-10 wks old) are weighed and monitored daily. On the final day, blood, feces, and colonic samples for RNA, protein and histology are collected for downstream analysis. […]

[1] = Water solubility of MJK compounds; format: physicochemical
Description: Solubility of MJK compounds: The development of an oral formulation for patients with auto-immune diseases, including Crohn's Disease, is preferential and less expensive, avoiding the need of hospitalization in comparison to the intracolonic (enema) administration. Thus, the water solubility and physical properties of the MJK compounds were examined. […] MJK-008 is the highest soluble MJK compound.

[2] = listed as MJK-005, hydrochloride, 50 mg/kg
[3] = listed as MJK-013, hydrochloride, 50 mg/kg

Solubility score [1]: more soluble than MJK-001 and MJK-003
SMILES: COc1cccc(C(=O)/C=C/c2ccc(/C=C/C(=O)NO)n2C)c1 [MJK002, (E)-N-hydroxy-3-(5-((E)-3-(3-methoxyphenyl)-3-oxoprop-1-en-1-yl)-1-methyl-1H-pyrrol-2-yl)acrylamide]
clinical score (TNBS colitis; 50 mg/kg): ♦♦♦
colon length (TNBS colitis; 50 mg/kg): ♦
histological score (TNBS colitis; 50 mg/kg): did not yield significant differences and ns
clinical score (TNBS colitis; listed as MJK-002, 50 mg/kg): statistical significance in the reduction of the clinical score
colon length (TNBS colitis; listed as MJK-002, 50 mg/kg): increase of colon length

SMILES: Cn1c(/C=C/C(=O)NO)ccc1/C=C/C(=O)c1cccc(Cl)c1 [MJK003, (E)-3-(5-((E)-3-(3-chlorophenyl)-3-oxoprop-1-en-1-yl)-1-methyl-1H-pyrrol-2-yl)-N-hydrox-yacrylamide]
clinical score (TNBS colitis; 50 mg/kg): ♦♦
colon length (TNBS colitis; 50 mg/kg): ♦
histological score (TNBS colitis; 50 mg/kg): did not yield significant differences and ns
clinical score (TNBS colitis; listed as MJK-003, 50 mg/kg): statistical significance in the reduction of the clinical score
colon length (TNBS colitis; listed as MJK-003, 50 mg/kg): increase of colon length

SMILES: Cl.Cn1c(/C=C/C(=O)NO)ccc1/C=C/C(=O)c1ccsc1 [MJK005, (E)-N-hydroxy-3-(1-methyl-5-((E)-3-oxo-3-(thiophen-3-yl)prop-1-en-1-yl)-1H-pyrrol-2-yl)acrylamide hydrochloride]
clinical score (TNBS colitis; hydrochloride, 50 mg/kg): ♦♦♦
colon length (TNBS colitis; hydrochloride, 50 mg/kg): ns
clinical score (TNBS colitis; [2]): reduction in clinical scoring
colon length (TNBS colitis; [2]): did not alter colon length

SMILES: Cn1cccc1C(=O)/C=C/c1ccc(/C=C/C(=O)NO)n1C [MJK007, (E)-N-Hydroxy-3-(1-methyl-5-((E)-3-(1-methyl-1H-pyrrol-2-yl)-3-oxoprop-1-en-1-yl)-1H-pyrrol-2-yl)acrylamide]
clinical score (TNBS colitis; 50 mg/kg): ns
colon length (TNBS colitis; 50 mg/kg): ns
clinical score (TNBS colitis; listed as MJK-007, 50 mg/kg): no significant differences
colon length (TNBS colitis; listed as MJK-007, 50 mg/kg): no significant differences

Solubility score [1]: highest solubility
SMILES: Cn1c(/C=C/C(=O)NO)ccc1/C=C/C(=O)c1cccnc1 [MJK009, (E)-N-Hydroxy-3-(1-methyl-5-((E)-3-oxo-3-(pyridin-3-yl)prop-1-en-1-yl)-1H-pyrrol-2-yl)ac-rylamid p-toluenesulfonic acid salt]
clinical score (TNBS colitis; 50 mg/kg): ♦
colon length (TNBS colitis; 50 mg/kg): ns
clinical score (TNBS colitis; listed as MJK-009, 50 mg/kg): reduction in clinical scoring
colon length (TNBS colitis; listed as MJK-009, 50 mg/kg): did not alter colon length

SMILES: Cn1c(/C=C/C(=O)NO)ccc1/C=C/C(=O)c1ccccn1 [MJK010, (E)-N-Hydroxy-3-(1-methyl-5-((E)-3-oxo-3-(pyridin-2-yl)prop-1-en-1-yl)-1H-pyrrol-2-yl)acrylamide]
clinical score (TNBS colitis; 50 mg/kg): ns
colon length (TNBS colitis; 50 mg/kg): ns
clinical score (TNBS colitis; listed as MJK-010, 50 mg/kg): no significant differences
colon length (TNBS colitis; listed as MJK-010, 50 mg/kg): no significant differences

Solubility score [1]: worst solubility
SMILES: Cn1c(/C=C/C(=O)NO)ccc1/C=C/C(=O)c1ccncc1 [MJK011, (E)-N-hydroxy-3-(1-methyl-5-((E)-3-oxo-3-(pyridin-4-yl)prop-1-en-1-yl)-1H-pyrrol-2-yl)ac-rylamide]
clinical score (TNBS colitis; 50 mg/kg): ♦♦♦
colon length (TNBS colitis; 50 mg/kg): ns
clinical score (TNBS colitis; listed as MJK-011, 50 mg/kg): reduction in clinical scoring
colon length (TNBS colitis; listed as MJK-011, 50 mg/kg): did not alter colon length

SMILES: Cn1c(/C=C/C(=O)NO)ccc1/C=C/C(=O)c1ccco1 [MJK012, (E)-3-(5-((E)-3-(Furan-2-yl)-3-oxoprop-1-en-1-yl)-1-methyl-1H-pyrrol-2-yl)-N-hydroxyacrylamide]
clinical score (TNBS colitis; 50 mg/kg): ns
colon length (TNBS colitis; 50 mg/kg): ns
clinical score (TNBS colitis; listed as MJK-012, 50 mg/kg): no significant differences
colon length (TNBS colitis; listed as MJK-012, 50 mg/kg): no significant differences

SMILES: Cl.Cn1c(/C=C/C(=O)NO)ccc1/C=C/C(=O)c1cnccn1 [MJK013, (E)-N-Hydroxy-3-(1-methyl-5-((E)-3-oxo-3-(pyrazin-2-yl)prop-1-en-1-yl)-1H-pyrrol-2-yl)acrylamide hydrochloride]
clinical score (TNBS colitis; hydrochloride, 50 mg/kg): ns
colon length (TNBS colitis; hydrochloride, 50 mg/kg): ns
clinical score (TNBS colitis; [3]): no significant differences
colon length (TNBS colitis; [3]): no significant differences
